Tests used:
[1] = Kinetic profile of in vitro drug release by dialysis; type: physicochemical; conditions: dialysis in PBS pH 7.4 with 0.1% Tween 80, 37° C., 72 hr; burst within first 10 hr
Experimental: The kinetics of in vitro release of drugs from the loaded NPs and free drugs were studied by the dialysis method. One (1) ml of drug-loaded NPs or free drugs (both systems in DW) were placed in dialysis bags (molecular weight cutoff of 3.5 kDa, Sigma-Aldrich, Merck, Rehovot, Israel) and incubated in 30 ml volume of plasma simulating buffer comprising phosphate-buffered saline (PBS, 10 mM, pH 7.4) containing 0.1% tween 80 for 72 hr, at 37° C., with continuous gentle agitation. At defined time intervals (0, 2, 4, 6, 10, 23, 29, 36, 47, 58, 72 hr), the dialysate was collected and replaced by the same volume of fresh release buffer. To calculate the cumulative release of drugs, the dialysates from each time point were freeze-dried, dissolved in EtOH or DMSO for CTX or ENZ extraction, respectively, filtered through 0.45 μm membrane, and quantified using RP-HPLC, as described above. The results are presented as means of two experiments±SE.
The kinetics of in vitro release of CTX and ENZ from NPs were assessed by dialysis in a large volume of a plasma-simulating buffer for 72 hr at 37° C., with continuous mixing. […] At defined time intervals, the dialysate was replaced with a fresh buffer, and the drug was quantified using RP-HPLC. […]

[2] = test system: LNCaP target cells (PSMA-positive PC cell line); experiment: XTT growth inhibition assay, LNCaP; type: cell-based; conditions: Homo sapiens, free drug in growth medium for 72 hr
Experimental: (§1) The selective growth inhibition of CTX-loaded NPs was studied in LNCaP target cells and PC-3 non-target cells, using an XTT-based colorimetric cell proliferation kit as previously described. The preparation of CTX-loaded NPs was performed as described and had undergone 24 hr dialysis before cell exposure, to simulate the conditions in the human body. The dialysis was conducted as described in the “Kinetic profile of in vitro drug release” in the materials and methods section, but with the use of 10% FBS to capture the released CTX. Prior to the experiment, 96-well plates were coated with poly-L-Lysine before cell plating. LNCaP and PC-3 cells were seeded in 96-well plates at 5×10^4 and 2.5×10^4 cells/ml, respectively, and incubated overnight to allow for cell attachment. Following exposure of cells to CTX-loaded NPs at increasing CTX concentrations of 0.001-100 nM for 24 hr, cells were incubated for additional 72 hr with fresh growth medium. Cellular growth inhibition was determined by adding the XTT reagent. Data were plotted using a nonlinear curve fitting of a sigmoidal model (Hill1) with OriginPro 9.0 to obtain a dose-response curve according to Equation (3): […]

[3] = test system: PC-3 non-target cells (PSMA-negative PC cell line); experiment: XTT growth inhibition assay, PC-3; type: cell-based; conditions: Homo sapiens; free drug in growth medium for 72 hr
Experimental: as §1

LNCaP cells = conditions: exposure for 48 hr; cited from earlier work

| SMILES | in vitro release profile [1] | IC50 [2] | IC50 [3] | IC50 (LNCaP cells) |
| --- | --- | --- | --- | --- |
| CNC(=O)c1ccc(N2C(=S)N(c3ccc(C#N)c(C(F)(F)F)c3)C(=O)C2(C)C)cc1F [unencapsulated ENZ, Enzalutamide] | burst release | – | – | – |
| CO[C@H]1C(=O)[C@]2(C)[C@@H](OC)C[C@H]3OC[C@@]3(OC(C)=O)[C@H]2[C@H](OC(=O)c2ccccc2)[C@]2(O)C[C@H](OC(=O)[C@H](O)[C@@H](NC(=O)OC(C)(C)C)c3ccccc3)C(C)=C1C2(C)C [free CTX, Cabazitaxel] | burst release | 0.25 ± 0.04 nM | 0.18 ± 0.04 nM | 2.6 to 3.1 nM |

From patent US20240156742A1, “TARGETED MULTIFUNCTIONAL NANOSTRUCTURED LIPID CARRIERS” (TECHNION RESEARCH & DEVELOPMENT FOUNDATION LIMITED, priority 2021, published 2024)
